According to paper PMC4192545, “Suramin Inhibits Hsp104 ATPase and Disaggregase Activity” (PLoS ONE, 2014):

How the values were obtained:
Hsp104 = target: T1, Hsp104 (Saccharomyces cerevisiae, UniProt P31539); assay: High-throughput Hsp104 ATPase plate assay (malachite green, 384-well); assay type: biochemical, yeast; conditions: 60 min
T1 construct: made in house; host or cells: E. coli BL21-DE3 RIL
Description: ATPase activity was assessed by the release of inorganic phosphate determined using a malachite green phosphate detection kit (Innova Biosciences, Cambridge, United Kingdom). Microtiter plates (384-well) were purchased from PerkinElmer (Waltham, MA). Three libraries were screened: The NIH Clinical Collection (450 small molecules), the Spectrum Collection (2,000 compounds, MicroSource, Gaylordsville, CT) and the HitFinder Collection (14,400 compounds, Maybridge).
We adapted the inorganic phosphate colorimetric assay to fit a 384-well plate format. A Ź-factor between 0.8 and 1 was calculated for the assay. A 2X Hsp104 stock solution was dispensed into each well using a Biotek microflo (Biotek Instruments, Winooski, VT). Compounds were then transferred using a Janus 96/384 Modular Dispensing Tool (PerkinElmer). Finally, a 2X ATP solution was dispensed using the Biotek microflo. Final concentrations of Hsp104 (monomer) and ATP were 0.25 µM and 1 mM respectively. Seeking to avoid the discovery of competitive inhibitors, we designed our high-throughput screen to use a 100-fold excess of ATP with respect to the test compounds (10 µM each). Final buffer conditions were 20 mM HEPES-KOH pH 7.4, 20 mM NaCl and 10 mM MgCl2. The ATPase reaction was allowed to continue for 60 min, at which time the reaction was terminated by addition of the colorimetric reagent. Absorbance was measured at 635 nm on an EnVision Xcite Multilabel plate reader (PerkinElmer). Hits were tested in duplicate. […] Ten of these were subjected to a 6-point titration (40, 13.3, 4.44, 1.45, 0.49 and 0 µM) in the absence or presence of Triton X-100, BSA, or both Triton X-100 and BSA at the specified concentrations. Heat maps were created in Excel for Mac 2011 (Microsoft Corporation) using the Conditional Formatting feature (Color Scales).
We aimed to identify small molecules capable of inhibiting Hsp104. To do so, we employed high-throughput screening using Hsp104 ATPase activity as a proxy for function. To detect changes in Hsp104 ATPase activity, we used a colorimetric assay detecting free inorganic phosphate (Pi) based on the formation of a colored complex between Pi and a dye molecule under acidic conditions, [44]. Pi is produced from the Hsp104-driven hydrolysis of ATP. The colored complex concentration, a surrogate for Pi concentration and ATPase rate, is determined by measuring the absorbance of a sample at 635 nm. We used recombinant Hsp104 purified from E. coli. An Hsp104 mutant with mutations in both NBD1 and NBD2 Walker B sequence motifs (Hsp104^DWB, carrying ATPase ablating mutations E285Q: E687Q) was used as a negative control for ATPase activity. Hsp104^WT activity results in a high A635 (high ATPase), while Hsp104^DWB activity results in a low A635 (low ATPase). We optimized the Pi colorimetric assay to fit a 384-well plate format. We selected the Hsp104 concentration (0.25 µM) on the basis of previous experience in our laboratory. The ATP concentration was selected to be in a 100-fold excess of ATP with respect to the test compounds. […] We screened 16,850 compounds from the NIH Clinical Collection as well as the Spectrum and Maybridge compound libraries. […] For instance, hexachlorophene and tannic acid inhibit Hsp104 ATPase activity by ∼80%, while Merbromin and Sennoside a inhibit by ∼20% ( Table 1 ).

[1] = test system: HAP (Hsp104 variant) with ClpP; assay: FITC-casein degradation (substrate translocation) assay; assay type: biochemical; conditions: 25°C
Description: FITC-casein (0.1 µM) was incubated with HAP (1 µM hexamer) and ClpP (21 µM monomer) at 25°C. ATP ([…]) and an ATP-regenerating system were included in all reactions. Varying concentrations of Suramin (0, 25, or 100 µM) were included as noted. We monitored degradation of FITC-casein by measuring fluorescence (excitation 490 nm, emission 520 nm) using a Tecan Safire^2 microplate reader (Tecan, Männedorf, Switzerland).
Next, we established that Suramin hampers substrate translocation by Hsp104 using an engineered Hsp104 variant, HAP, which anchors to the bacterial peptidase ClpP to form a novel proteolytic system. Thus, HAP translocates fluorescein isothiocyanate (FITC)-casein for degradation by ClpP. Fluorescence increases as FITC is released from degraded casein and can be used as a surrogate for substrate translocation. […] Note that both the unfolding and translocation activities appear less sensitive to Suramin than disaggregase activity ( Figures 3B , 4A and 4B ). Thus, disaggregation of protein aggregates makes more stringent demands on the Hsp104 hexamer than the unfolding or translocation of soluble substrates. Altogether, we have established that Suramin greatly decreases Hsp104 ATPase activity, drastically impairs its capacity to refold luciferase and hinders its substrate unfolding and translocation activities.

T1 sequence (P31539 whole entry): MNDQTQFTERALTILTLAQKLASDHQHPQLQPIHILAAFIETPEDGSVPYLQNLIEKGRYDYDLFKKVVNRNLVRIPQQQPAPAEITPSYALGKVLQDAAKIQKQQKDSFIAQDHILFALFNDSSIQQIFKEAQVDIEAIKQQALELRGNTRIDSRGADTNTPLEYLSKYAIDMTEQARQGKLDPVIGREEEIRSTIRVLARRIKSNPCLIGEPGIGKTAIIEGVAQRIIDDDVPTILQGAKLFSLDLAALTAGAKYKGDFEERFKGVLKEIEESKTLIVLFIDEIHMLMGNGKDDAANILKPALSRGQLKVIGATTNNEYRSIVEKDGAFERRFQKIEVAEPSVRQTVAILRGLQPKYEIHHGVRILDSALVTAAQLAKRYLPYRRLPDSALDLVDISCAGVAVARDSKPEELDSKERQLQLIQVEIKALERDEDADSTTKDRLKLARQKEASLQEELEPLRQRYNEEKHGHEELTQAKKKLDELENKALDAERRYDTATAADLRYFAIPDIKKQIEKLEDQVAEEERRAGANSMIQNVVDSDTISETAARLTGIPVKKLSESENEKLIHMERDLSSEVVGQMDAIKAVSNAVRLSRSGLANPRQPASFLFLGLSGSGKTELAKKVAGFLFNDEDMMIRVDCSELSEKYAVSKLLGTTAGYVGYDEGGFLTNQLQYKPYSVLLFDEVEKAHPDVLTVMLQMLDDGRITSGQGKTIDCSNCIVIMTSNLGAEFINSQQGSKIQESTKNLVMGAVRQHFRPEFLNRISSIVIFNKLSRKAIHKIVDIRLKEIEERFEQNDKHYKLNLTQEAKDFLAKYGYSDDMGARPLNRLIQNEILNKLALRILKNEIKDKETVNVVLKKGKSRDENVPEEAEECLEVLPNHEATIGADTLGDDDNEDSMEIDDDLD

Cc1ccc(C(=O)Nc2ccc(S(=O)(=O)O)c3cc(S(=O)(=O)O)cc(S(=O)(=O)O)c23)cc1NC(=O)c1cccc(NC(=O)Nc2cccc(C(=O)Nc3cc(C(=O)Nc4ccc(S(=O)(=O)O)c5cc(S(=O)(=O)O)cc(S(=O)(=O)O)c45)ccc3C)c2)c1 [Suramin]
inhibition at 10 µM (Hsp104; 10 µM compound, Hsp104 0.25 µM monomer, ATP 1 mM, mean ±S.D. (n = 2), read-out: % Inhibition of Hsp104 ATP hydrolysis): 50.8 ± 2.83% | Inhibition of Hsp104 ATPase activity in the presence of both Triton X-100 and BSA (Hsp104; titration 40-0.49 µM, Triton X-100 and BSA, heat map Figure 1A): most significantly inhibit Hsp104 ATPase activity | Effect on substrate translocation (FITC-casein degradation by HAP/ClpP) ([1]; Suramin 25 µM): permits translocation activity equivalent to that by untreated HAP in conjunction with ClpP | Effect on substrate translocation (FITC-casein degradation by HAP/ClpP) ([1]; Suramin 100 µM): completely abolished substrate translocation
